Key:
[1] = system: hUC-MSCs; experiment: Immediate cell survival rate of hUC-MSCs by trypan blue counting after 72 h cryopreservation at 4° C.; format: cell-based, human; settings: metabolite added to Hibernate-A basic cryopreservation solution, FIG. 3
Text: (§1) Cells used in this experiment were: hUC-MSCs (donated umbilical cord tissues from the Biotherapy Center of the Third Affiliated Hospital of Sun Yat-sen University and newborns).
(§2) The number of cells used in this experiment was: 1×10^6 cells.
(§3) The basic cryopreservation solution used in this experiment was Hibernate™-A medium (Thermofisher, catalog number: GIBCO A1247501), and the components were shown in Table 1.
(§4) The experimental groups of this example included: Hibernate™-A, Hibernate™-A+TUDCA, Hibernate™-A+QCA, and Hibernate™-A+Phosphocholine.
(§5) The experimental operation of this example included: 1 mL of the resuspended hUC-MSCs cells in Hibernate™-A basic cryopreservation solution with the above-mentioned specified metabolites added were placed in a 5 mL EP tube, allowed to stand at room temperature for 20 min, and then placed in a 4° C. refrigerator shaker for slow shaking to allow cryopreservation for 72 h. After cryopreservation for 72 h, the cells were centrifuged and counted with trypan blue to calculate the cell survival rate, and then plated on a 96-well plates for CCK8 cell proliferation assay. The remaining cells were continued to be plated on a 6-well plate and placed in a 37° C. cell culture incubator to observe the subsequent cell status.

[2] = system: hUC-MSCs; experiment: Culture of hUC-MSCs plated after 72 h cryopreservation (cell status by light microscopy, cell number after 3 days); format: cell-based, human; settings: hUC-MSCs after 72 h cryopreservation in Hibernate-A plus metabolite, 37° C., FIG. 3
Text: as §1, §2, §3, §4, §5

[3] = system: Hepatocytes; experiment: Cryopreservation and rewarming of hepatocytes (MitoNeoD mitochondrial ROS, real-time imaging of cell membrane integrity); format: cell-based; settings: UW solution with 50 μM phosphocholine, 4° C. 12 h, rewarming medium with 500 μM phosphocholine, 37° C. 2 h, FIGS. 7A-7B
Experimental: Hepatocytes cultured under normal conditions served as a 37° C. control. For cold exposure treatment, the medium was replaced with UW solution at room temperature for 15 min, and the cells in UW solution (containing 50 μM phosphocholine) were transferred to a 4° C. refrigerator for 12 h. Rewarming involved taking cells out of the refrigerator and culturing with a pre-chilled medium (containing 500 μM phosphocholine). After allowing to stand for 15 min at room temperature, the cells were transferred to a 37° C. incubator for 2 h. The integrity of cell membranes is dynamically monitored by Real-time imaging using MitoNeoD live cell dye to assess the mitochondrial ROS and transfection of a plasmid carrying the mNeonGreen tag and the phospholipase Cδ PH domain.

[4] = system: rat liver; experiment: Static cold storage and rewarming/reperfusion of isolated rat liver (H&E sectioning, TUNEL staining); settings: phosphocholine supplemented during rewarming/reperfusion, 4° C. 48 h, perfused 37° C. 2 h, FIGS. 8A-8C
Experimental: 2-3 month old male/female SD rats or 2-3 month old golden hamsters were fasted overnight and anesthetized by inhalation of isoflurane, and then given 50 IU of heparin. The bile duct was cannulated with a PE-10 catheter, and the portal vein was cannulated with a 22-G Introcan catheter. The liver was washed with physiological saline, UW, or UW supplemented with phosphocholine (50 μM) and collected. A perfusion system was established in a circulation mode, and 250 mL of a Krebs-Henseleit (KH) bicarbonate buffer or KH buffer supplemented with phosphocholine (500 μM) was prepared. Oxygenation was conducted in a mixed gas of 95% O2 and 5% CO2 through a fiber oxygenator to a partial pressure of oxygen exceeding 500 mmHg. The liver was stored at 4° C. for 48 h, equilibrated at room temperature for 10 min, and perfused at 37° C. for 2 h. A flow rate was set in pressure control mode, and a portal vein pressure (PVP) was kept constant at 12 mmHg. The flow rate and PVP were automatically monitored and recorded. The portal vein resistance (PVR) was calculated as follows: PVR (mmHg/mL×min×g liver)=PVP (12 mmHg)/portal vein flow rate (mLxminxg liver). Liver samples were fixated in 4% paraformaldehyde for subsequent H&E sectioning and TUNEL staining. […]

| ROS in hepatocyte mitochondria ([3]; MitoNeoD) | integrity of hepatocyte membrane ([3]; mNeonGreen-PLCδ PH domain imaging) | Compound | immediate cell survival rate versus basic cryopreservation solution control [1] | total number of cells obtained after being plated and cultured for 3 days versus basic cryopreservation solution control [2] | cell apoptosis versus control group (TUNEL staining) [4] | sinus cavity (H&E sections) [4] |
| --- | --- | --- | --- | --- | --- | --- |
| – | – | O=C(O)c1ccnc2ccccc12 [QCA, quinoline-4-carboxylic acid] | slightly lower | significantly more | – | – |
| – | – | C[C@H](CCC(=O)NCCS(=O)(=O)[O-])[C@H]1CC[C@H]2[C@@H]3[C@@H](O)C[C@@H]4C[C@H](O)CC[C@]4(C)[C@H]3CC[C@]12C.[Na+] [TUDCA, sodium tauroursodeoxycholate] | significantly higher | significantly more | – | – |
| reduce | maintain the integrity | C[N+](C)(C)CCOP(=O)([O-])O [phosphocholine] | slightly lower | significantly more | milder | apparently normal |
